Test results from patent publication US5344952A, “Fluoroketone enzyme inhibitors” (priority 1993, dated 1994).

Key:
[1] = tested on: RLE; assay: Sandwich assay for Adenovirus, free inhibitor added to control wells (RLE, o-nitrophenyl butyrate); type: biochemical, rabbit; details: control wells having no antigen; 5×10^-9 M RLE, 50 mM TRIS pH 8.5, 1 mM o-nitrophenyl butyrate; color without inhibitor in ca 15 minutes
Protocol: A polyvinyl chloride microtiter plate was coated with anit-adenovirus antibody by incubating the plate for 1 hour at 37° C. in a 1:900 dilution of 4.5 mg/mL stock solution of the antibody in a 10 mM carbonate 20 mM ethylenediaminetetraacetic acid (EDTA) buffer. The plate was washed 3 times with a wash buffer solution consisting of 0.5% casein in 10 mM TRIS and 154 mM NaCl at pH 7.6. Adenovirus infected HeLa cells diluted to ca 1×10^5 plaque forming units (PFU)/ml in pH 7.4 phosphate buffered-saline containing 0.05% polyoxyethylenesorbitan monolaurate, 0.1 mg/ML gentamicin, 0.5% phenol red, 0.1% bovine serum albumin, 10 mM EDTA and 100 mM ethylene bis(oxyethylenenitrilo) tetraacetic acid were serially diluted in 2-fold steps across the plate. The plate was incubated-as above to bind the cells to the antibody, washed with wash buffer, incubated with a 0.005 mg/mL tracer solution of anti-adenovirus conjugated to alkaline phosphatase in wash buffer containing 0.5% gelatin and 10% inactivated fetal calf serum. Excess tracer solution was decanted and the plate was washed 3 times with TRIS buffer (without casein). A mixture of a 1×10^-4 M solution of the blocked inhibitor from Example I and 5×10^-9 M RLE in 50 mM TRIS buffer, pH 8.5, was added and the plate was incubated at room temperature for 10 minutes. o-Nitrophenyl butyrate (1 mM) was then added to each well of the plate. […]

[2] = biological target: T1, Rabbit Liver Esterase (E.C. 3.1.1.1) (Oryctolagus cuniculus, UniProt P12337); assay: Inhibition constant, rabbit liver esterase (o-nitrophenylbutyrate hydrolysis); type: biochemical; details: RLE; 50 mM Tris pH=8.0; 20 min incubation at ambient temperature; substrate o-nitro-phenylbutrate
T1 construct: from tissue; host or cells: liver
T1 sequence (P12337 19-565): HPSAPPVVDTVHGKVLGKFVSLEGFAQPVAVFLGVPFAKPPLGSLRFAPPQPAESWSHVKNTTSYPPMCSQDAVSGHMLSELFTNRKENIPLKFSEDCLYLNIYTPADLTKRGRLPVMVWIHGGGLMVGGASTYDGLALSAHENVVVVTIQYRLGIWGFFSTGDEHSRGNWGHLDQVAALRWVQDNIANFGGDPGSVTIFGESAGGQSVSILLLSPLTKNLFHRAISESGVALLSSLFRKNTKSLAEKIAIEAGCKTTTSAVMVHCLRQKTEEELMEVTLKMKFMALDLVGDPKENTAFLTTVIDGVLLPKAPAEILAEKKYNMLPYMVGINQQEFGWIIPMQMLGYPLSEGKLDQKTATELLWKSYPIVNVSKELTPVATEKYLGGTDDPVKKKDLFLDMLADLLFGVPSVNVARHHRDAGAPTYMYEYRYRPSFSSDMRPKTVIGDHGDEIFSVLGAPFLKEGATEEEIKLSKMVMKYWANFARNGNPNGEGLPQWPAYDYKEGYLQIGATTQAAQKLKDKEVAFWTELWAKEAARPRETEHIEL
Protocol: Inhibition constants were measured in 50 mM Tris pH=8.0. Enzyme and inhibitor were incubated at ambient temperature for 20 minutes. Substrate for the enzyme was then added and the rate of hydrolysis was followed spectrophotometrically. The substrate for PLE and RLE was o-nitro-phenylbutrate and for AChE was acetyl thiocholine and Ellman's reagent.

Row | Structure (SMILES) | color formation in control wells on addition of free inhibitor [1] | Ki [2] [nM]
1 | O=C(CCc1ccc(O)cc1)C(F)(F)F [1,1,1-Trifluoro-4-(4-hydroxyphenyl)-2-butanone] | inhibited color formation for longer periods | 
2 | O=C(/C=C/c1cccc(O)c1)C(F)(F)F [1,1,1-trifluoro-4-(3-hydroxyphenyl)-3-trans-buten-2-one] |  | 160
